# Results taken from US12371454B2, “Cyclic peptide compound having Kras inhibitory action” (priority 2019, dated 2025).
# Positions of bridges follow the written chain, without caps; N, C: chain ends. Non-standard residues stand in square brackets, D forms with d. Residues, ends and D or L forms follow the SMILES beside them. *: point of attachment. hPhe(3-Cl-4-CF3) = N[C@@H](CCc1ccc(C(F)(F)F)c(Cl)c1)C(=O)O; hPhe(3-F,4-CF3) = N[C@@H](CCc1ccc(C(F)(F)F)c(F)c1)C(=O)O; NMePhe(4-CF3) = CN[C@@H](Cc1ccc(C(F)(F)F)cc1)C(=O)O; NMePhe(4-Me) = CN[C@@H](Cc1ccc(C)cc1)C(=O)O; NMeGly(cPent) = CN[C@H](C(=O)O)C1CCCC1; NMeCha = CN[C@@H](CC1CCCCC1)C(=O)O; Hyp = O=C(O)[C@@H]1C[C@@H](O)CN1; NMeF = CN[C@@H](Cc1ccccc1)C(=O)O; NMeD = CN[C@@H](CC(=O)O)C(=O)O; NMeL = CN[C@@H](CC(C)C)C(=O)O; NMeNle = CCCC[C@H](NC)C(=O)O; NMeNva = CCC[C@H](NC)C(=O)O; NMeV = CN[C@H](C(=O)O)C(C)C; d(β3hA) = C[C@@H](N)CC(=O)O; NMeAbu = CC[C@H](NC)C(=O)O; NMeS = CN[C@@H](CO)C(=O)O; NMeA = CN[C@@H](C)C(=O)O; Piperidide = C1CCN(*)CC1; dNMeA = CN[C@H](C)C(=O)O; Ac5c = NC1(C(=O)O)CCCC1; Aze = O=C(O)[C@@H]1CCN1; Ac4c = NC1(C(=O)O)CCC1; Sar = CNCC(=O)O; Propyl = CCC*
# Tested on: Human pancreatic cancer cell line AsPC-1
# Assay: Measurement of AsPC-1 cell growth inhibition (AsPC-1 CGI)
# Format: cell-based
# Details: 96 h
# How it was run: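 AsPC-1 cells in 15% FBS RPMI-1640 were exposed to test compound for 96 hours at 37° C, with CellTiter-Glo as endpoint.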
row,Structure (SMILES),IC50
1,"CC[C@H](C)[C@@H]1NC(=O)[C@H](CC(C)C)N(C)C(=O)C[C@@H](C)NC(=O)[C@H](CC(C)C)N(C)C(=O)C2(CCCC2)NC(=O)[C@@H]2C[C@@H](O)CN2C(=O)[C@H](CCc2ccc(C(F)(F)F)c(F)c2)NC(=O)CN(C)C(=O)[C@H](CC2CCCCC2)N(C)C(=O)CN(C)C(=O)CN(C)C1=O [Compound 1483, (3S,9S,18S,21S,25R,28S,34S,36R)-9-(cyclohexylmethyl)-3-[2-[3-fluoro-4-(trifluoromethyl)phenyl]ethyl]-36-hydroxy-21,28-diisobutyl-7,10,13,16,22,25,29-heptamethyl-18-[(1S)-1-methylpropyl]spiro[1,4,7,10,13,16,19,22,26,29,32-undecazabicyclo[32.3.0]heptatriacontane-31,1′-cyclopentane]-2,5,8,11,14,17,20,23,27,30,33-undecone] (cyclo([Ac5c][NMeL][d(β3hA)][NMeL]I[Sar][Sar][NMeCha][Sar][hPhe(3-F,4-CF3)][Hyp]))",> 500 nM
2,CC[C@H](C)[C@@H]1NC(=O)[C@H](CC(C)C)N(C)C(=O)C[C@@H](C(=O)N2CCCCC2)N(C)C(=O)[C@H](C(C)C)N(C)C(=O)C2(CCCC2)NC(=O)[C@@H]2CCCN2C(=O)[C@H](CCc2ccc(C(F)(F)F)c(Cl)c2)NC(=O)CN(C)C(=O)[C@H](CC2CCCCC2)N(C)C(=O)[C@@H]2CCN2C(=O)[C@H](Cc2ccccc2)N(C)C1=O [Compound 1561] ([NMeL]I[NMeF][Aze][NMeCha][Sar][hPhe(3-Cl-4-CF3)]P[Ac5c][NMeV][NMeD]-Piperidide; lactam N-11),100 to 500 nM
3,CC[C@H](C)[C@@H]1NC(=O)[C@H](CC(C)C)N(C)C(=O)C[C@@H](C(=O)N2CCCCC2)N(C)C(=O)[C@H](C(C)C)N(C)C(=O)C2(CCCC2)NC(=O)[C@@H]2CCCN2C(=O)[C@H](CCc2ccc(C(F)(F)F)c(Cl)c2)NC(=O)CN(C)C(=O)[C@H](CC2CCCCC2)N(C)C(=O)[C@@H]2CCN2C(=O)[C@H](CC)N(C)C1=O [Compound 1569] ([NMeL]I[NMeAbu][Aze][NMeCha][Sar][hPhe(3-Cl-4-CF3)]P[Ac5c][NMeV][NMeD]-Piperidide; lactam N-11),100 to 500 nM
4,CCCC[C@H]1C(=O)N2CC[C@H]2C(=O)N(C)[C@@H](CC2CCCCC2)C(=O)N(C)CC(=O)N[C@@H](CCc2ccc(C(F)(F)F)c(Cl)c2)C(=O)N2CCC[C@H]2C(=O)NC2(CCCC2)C(=O)N(C)[C@@H](C(C)C)C(=O)N(C)[C@H](C(=O)N2CCCCC2)CC(=O)N(C)[C@@H](CC(C)C)C(=O)N[C@@H]([C@@H](C)CC)C(=O)N1C [Compound 1596] ([NMeL]I[NMeNle][Aze][NMeCha][Sar][hPhe(3-Cl-4-CF3)]P[Ac5c][NMeV][NMeD]-Piperidide; lactam N-11),100 to 500 nM
5,CCC[C@H]1C(=O)N2CC[C@H]2C(=O)N(C)[C@@H](CC2CCCCC2)C(=O)N(C)CC(=O)N[C@@H](CCc2ccc(C(F)(F)F)c(Cl)c2)C(=O)N2CCC[C@H]2C(=O)NC2(CCCC2)C(=O)N(C)[C@@H](C(C)C)C(=O)N(C)[C@H](C(=O)N2CCCCC2)CC(=O)N(C)[C@@H](CC(C)C)C(=O)N[C@@H]([C@@H](C)CC)C(=O)N1C [Compound 1601] ([NMeL]I[NMeNva][Aze][NMeCha][Sar][hPhe(3-Cl-4-CF3)]P[Ac5c][NMeV][NMeD]-Piperidide; lactam N-11),100 to 500 nM
6,CCCC[C@H]1C(=O)N[C@@H]([C@@H](C)CC)C(=O)N(C)[C@@H](C)C(=O)N2CC[C@H]2C(=O)N(C)[C@@H](CC2CCCCC2)C(=O)N(C)CC(=O)N[C@@H](CCc2ccc(C(F)(F)F)c(Cl)c2)C(=O)N2CCC[C@H]2C(=O)NC2(CCCC2)C(=O)N(C)[C@@H](C(C)C)C(=O)N(C)[C@H](C(=O)N2CCCCC2)CC(=O)N1C [Compound 1616] ([NMeNle]I[NMeA][Aze][NMeCha][Sar][hPhe(3-Cl-4-CF3)]P[Ac5c][NMeV][NMeD]-Piperidide; lactam N-11),100 to 500 nM
7,CC[C@H](C)[C@@H]1NC(=O)[C@H](CC)N(C)C(=O)C[C@@H](C(=O)N2CCCCC2)N(C)C(=O)[C@H](C(C)C)N(C)C(=O)C2(CCCC2)NC(=O)[C@@H]2CCCN2C(=O)[C@H](CCc2ccc(C(F)(F)F)c(Cl)c2)NC(=O)CN(C)C(=O)[C@H](CC2CCCCC2)N(C)C(=O)[C@@H]2CCN2C(=O)[C@H](C)N(C)C1=O [Compound 1638] ([NMeAbu]I[NMeA][Aze][NMeCha][Sar][hPhe(3-Cl-4-CF3)]P[Ac5c][NMeV][NMeD]-Piperidide; lactam N-11),100 to 500 nM
8,CCC[C@H]1C(=O)N[C@@H]([C@@H](C)CC)C(=O)N(C)[C@@H](C)C(=O)N2CC[C@H]2C(=O)N(C)[C@@H](CC2CCCCC2)C(=O)N(C)CC(=O)N[C@@H](CCc2ccc(C(F)(F)F)c(Cl)c2)C(=O)N2CCC[C@H]2C(=O)NC2(CCCC2)C(=O)N(C)[C@@H](C(C)C)C(=O)N(C)[C@H](C(=O)N2CCCCC2)CC(=O)N1C [Compound 1639] ([NMeNva]I[NMeA][Aze][NMeCha][Sar][hPhe(3-Cl-4-CF3)]P[Ac5c][NMeV][NMeD]-Piperidide; lactam N-11),100 to 500 nM
9,CCCOC[C@H]1C(=O)N(C)CC(=O)N[C@@H](CCc2ccc(C(F)(F)F)c(Cl)c2)C(=O)N2CCC[C@H]2C(=O)NC2(CCCC2)C(=O)N(C)[C@@H](C(C)C)C(=O)N(C)[C@H](C(=O)N2CCCCC2)CC(=O)N(C)[C@@H](CC(C)C)C(=O)N[C@@H]([C@@H](C)CC)C(=O)N(C)[C@@H](C)C(=O)N2CC[C@H]2C(=O)N1C [Compound 1646] ([NMeL]I[NMeA][Aze][NMeS](Propyl)[Sar][hPhe(3-Cl-4-CF3)]P[Ac5c][NMeV][NMeD]-Piperidide; lactam N-11),100 to 500 nM

# More lines, now with the values ahead:
row,IC50,Structure (SMILES)
1,100 to 500 nM,CC[C@H](C)[C@@H]1NC(=O)[C@H](C)N(C)C(=O)C[C@@H](C)NC(=O)[C@H](C2CCCC2)N(C)C(=O)C2(CCCC2)NC(=O)[C@@H]2CCCN2C(=O)[C@H](CCc2ccc(C(F)(F)F)c(Cl)c2)NC(=O)CN(C)C(=O)[C@H](Cc2ccc(C)cc2)N(C)C(=O)CN(C)C(=O)CN(C)C1=O [Compound 1485] (cyclo([Ac5c][NMeGly(cPent)][d(β3hA)][NMeA]I[Sar][Sar][NMePhe(4-Me)][Sar][hPhe(3-Cl-4-CF3)]P))
2,100 to 500 nM,CC[C@H](C)[C@@H]1NC(=O)[C@H](C)N(C)C(=O)C[C@@H](C)NC(=O)[C@H](C2CCCC2)N(C)C(=O)C2(CCC2)NC(=O)[C@@H]2CCCN2C(=O)[C@H](CCc2ccc(C(F)(F)F)c(Cl)c2)NC(=O)CN(C)C(=O)[C@H](Cc2ccc(C(F)(F)F)cc2)N(C)C(=O)CN(C)C(=O)CN(C)C1=O [Compound 1486] (cyclo([Ac4c][NMeGly(cPent)][d(β3hA)][NMeA]I[Sar][Sar][NMePhe(4-CF3)][Sar][hPhe(3-Cl-4-CF3)]P))
3,50 to 100 nM,CC[C@H](C)[C@@H]1NC(=O)[C@H](CC(C)C)N(C)C(=O)C[C@@H](C)NC(=O)[C@H](C2CCCC2)N(C)C(=O)C2(CCCC2)NC(=O)[C@@H]2CCCN2C(=O)[C@H](CCc2ccc(C(F)(F)F)c(Cl)c2)NC(=O)CN(C)C(=O)[C@H](Cc2ccc(C(F)(F)F)cc2)N(C)C(=O)[C@@H]2CCN2C(=O)CN(C)C1=O [Compound 1496] (cyclo([Ac5c][NMeGly(cPent)][d(β3hA)][NMeL]I[Sar][Aze][NMePhe(4-CF3)][Sar][hPhe(3-Cl-4-CF3)]P))
4,100 to 500 nM,CC[C@H](C)[C@@H]1NC(=O)[C@H](C)N(C)C(=O)C[C@@H](C)NC(=O)[C@H](C2CCCC2)N(C)C(=O)C2(CCCC2)NC(=O)[C@@H]2CCCN2C(=O)[C@H](CCc2ccc(C(F)(F)F)c(Cl)c2)NC(=O)[C@@H](C)N(C)C(=O)[C@H](Cc2ccc(C(F)(F)F)cc2)N(C)C(=O)[C@@H]2CCN2C(=O)[C@H](C)N(C)C1=O [Compound 1497] (cyclo([Ac5c][NMeGly(cPent)][d(β3hA)][NMeA]I[NMeA][Aze][NMePhe(4-CF3)][dNMeA][hPhe(3-Cl-4-CF3)]P))
5,100 to 500 nM,CC[C@H](C)[C@@H]1NC(=O)[C@H](CC(C)C)N(C)C(=O)C[C@@H](C)NC(=O)[C@H](C2CCCC2)N(C)C(=O)C2(CCCC2)NC(=O)[C@@H]2CCCN2C(=O)[C@H](CCc2ccc(C(F)(F)F)c(Cl)c2)NC(=O)CN(C)C(=O)[C@H](CC2CCCCC2)N(C)C(=O)[C@@H]2CCN2C(=O)CN(C)C1=O [Compound 1499] (cyclo([Ac5c][NMeGly(cPent)][d(β3hA)][NMeL]I[Sar][Aze][NMeCha][Sar][hPhe(3-Cl-4-CF3)]P))
6,100 to 500 nM,CC[C@H](C)[C@@H]1NC(=O)[C@H](CC(C)C)N(C)C(=O)C[C@@H](C)NC(=O)[C@H](C2CCCC2)N(C)C(=O)C2(CCCC2)NC(=O)[C@@H]2CCCN2C(=O)[C@H](CCc2ccc(C(F)(F)F)c(Cl)c2)NC(=O)[C@@H](C)N(C)C(=O)[C@H](Cc2ccc(C)cc2)N(C)C(=O)[C@@H]2CCN2C(=O)[C@H](C)N(C)C1=O [Compound 1504] (cyclo([Ac5c][NMeGly(cPent)][d(β3hA)][NMeL]I[NMeA][Aze][NMePhe(4-Me)][dNMeA][hPhe(3-Cl-4-CF3)]P))
7,50 to 100 nM,CC[C@H](C)[C@@H]1NC(=O)[C@H](C)N(C)C(=O)C[C@@H](C)NC(=O)[C@H](C2CCCC2)N(C)C(=O)C2(CCCC2)NC(=O)[C@@H]2CCCN2C(=O)[C@H](CCc2ccc(C(F)(F)F)c(Cl)c2)NC(=O)CN(C)C(=O)[C@H](Cc2ccc(C(F)(F)F)cc2)N(C)C(=O)[C@@H]2CCN2C(=O)[C@H](C)N(C)C1=O [Compound 1512] (cyclo([Ac5c][NMeGly(cPent)][d(β3hA)][NMeA]I[NMeA][Aze][NMePhe(4-CF3)][Sar][hPhe(3-Cl-4-CF3)]P))
8,100 to 500 nM,CC[C@H](C)[C@@H]1NC(=O)[C@H](C)N(C)C(=O)C[C@@H](C)NC(=O)[C@H](C2CCCC2)N(C)C(=O)C2(CCCC2)NC(=O)[C@@H]2CCCN2C(=O)[C@H](CCc2ccc(C(F)(F)F)c(Cl)c2)NC(=O)CN(C)C(=O)[C@H](Cc2ccc(C)cc2)N(C)C(=O)[C@@H]2CCN2C(=O)[C@H](C)N(C)C1=O [Compound 1514] (cyclo([Ac5c][NMeGly(cPent)][d(β3hA)][NMeA]I[NMeA][Aze][NMePhe(4-Me)][Sar][hPhe(3-Cl-4-CF3)]P))
9,100 to 500 nM,CCC[C@H]1C(=O)N[C@@H]([C@@H](C)CC)C(=O)N(C)[C@@H](C)C(=O)N2CC[C@H]2C(=O)N(C)[C@@H](CC2CCCCC2)C(=O)N(C)CC(=O)N[C@@H](CCc2ccc(C(F)(F)F)c(Cl)c2)C(=O)N2CCC[C@H]2C(=O)NC2(CCCC2)C(=O)N(C)[C@@H](C(C)C)C(=O)N[C@H](C)CC(=O)N1C [Compound 1564] (cyclo([Ac5c][NMeV][d(β3hA)][NMeNva]I[NMeA][Aze][NMeCha][Sar][hPhe(3-Cl-4-CF3)]P))
